{
  "source": "patent US20050250748A1",
  "about": "“Combination therapy of angiotensin converting enzyme inhibitor and eplerenone for treatment of cardiovascular disease” (G. D. Searle & Co., priority 1999, published 2005)",
  "key": {"[1]": {"tested_on": "patients with myocardial infarction", "settings": "patients with myocardial infarction receiving zofenopril; cited from earlier work"}, "[2]": {"tested_on": "patients with severe HF (NYHA Class IV)", "settings": "enalapril plus diuretics compared to placebo plus diuretics; cited from earlier work"}, "[3]": {"settings": "at lower temperatures (below the enantiotropic transition temperature)"}, "[4]": {"experiment": "solubility of eplerenone in crystallization solvents", "assay_type": "physicochemical", "settings": "organic solvent or mixture; room temperature; organic solvents used for crystallization"}, "[5]": {"tested_on": "patients with stable NYHA Class II-IV heart failure", "experiment": "Biological Evaluation I: randomized, double-blind, placebo and active drug-controlled 12-week trial of eplerenone with ACE inhibitor and loop diuretic", "settings": "for urinary aldosterone excretion, increase from baseline: 12 week visit; for plasma renin activity (PRA): drug therapy with ACE inhibitor and loop diuretic; for testosterone levels: in males"}, "[6]": {"tested_on": "patients with clinical evidence of HF at any time after an AMI", "settings": "cited from earlier work; for risk reduction in all cause mortality compared to placebo: p=0.002"}, "[7]": {"tested_on": "patients with impaired ejection fraction post AMI", "settings": "cited from earlier work"}, "hypertensive patients": {"tested_on": "hypertensive patients", "settings": "despite continued ACE inhibition; cited from earlier work"}, "[8]": {"tested_on": "patients with severe HF (NYHA Class III or IV)", "settings": "cited from earlier work"}, "[9]": {"tested_on": "patients afflicted with congestive heart failure", "settings": "coadministered with an ACE inhibitor; cited from earlier work"}, "animal models": {"tested_on": "animal models", "settings": "cited from earlier work"}, "hypertensive-rat cohort": {"tested_on": "hypertensive-rat cohort", "settings": "spironolactone subcutaneously; cited from earlier work"}, "[10]": {"tested_on": "patients with LV dysfunction 2 to 6 days following MI", "settings": "cited from earlier work"}, "[11]": {"tested_on": "patients alive at Day 3 with Killip class >I", "settings": "patients randomized to lisinopril; ACE-I treatment stopped at 42 days, more than 50% continued long-term; cited from earlier work"}},
  "note": "Read-outs that look alike come from different tables or passages of the source.",
  "data": [
    {"smiles": "C[C@H](CSC(=O)c1ccccc1)C(=O)N1C[C@@H](Sc2ccccc2)C[C@H]1C(=O)O", "note": "[zofenopril]", "values": [
      {"measurement": "plasma aldosterone", "setting": "[1]", "value": "A similar effect"}
    ]},
    {"smiles": "CCOC(=O)[C@H](CCc1ccccc1)N[C@@H](C)C(=O)N1CCC[C@H]1C(=O)O", "note": "[enalapril]", "values": [
      {"measurement": "mortality at one year reduced", "setting": "[2]", "value": 31, "unit": "%"}
    ]},
    {"smiles": "COC(=O)[C@@H]1CC2=CC(=O)CC[C@]2(C)[C@@]23O[C@@H]2C[C@@]2(C)[C@@H](CC[C@@]24CCC(=O)O4)[C@H]13", "note": "[Form L]", "values": [
      {"measurement": "physical stability relative to Form H", "setting": "[3]", "value": "greater physical stability"}
    ]},
    {"smiles": "COC(=O)[C@@H]1CC2=CC(=O)CC[C@]2(C)[C@@]23O[C@@H]2C[C@@]2(C)[C@@H](CC[C@@]24CCC(=O)O4)[C@H]13", "note": "[eplerenone, Pregn-4-ene-7,21-dicarboxylic acid, 9,11-epoxy-17-hydroxy-3-oxo-, γ-lactone, methyl ester, (7^α, 11^α, 17^α)-]", "values": [
      {"measurement": "solubility", "setting": "[4]", "value": "5 to 200", "unit": "mg/mL"},
      {"measurement": "urinary aldosterone excretion, increase from baseline", "setting": "[5]; 25 mg eplerenone QD, P>0.05", "value": "did not reach statistical significance"},
      {"measurement": "plasma renin activity (PRA)", "setting": "[5]", "value": "significantly elevated"},
      {"measurement": "reduction in BNP", "setting": "[5]; eplerenone at 25 mg, all patients", "value": "highly significant"},
      {"measurement": "reduction in BNP", "setting": "[5]; eplerenone at 100 mg, all patients", "value": "highly significant"},
      {"measurement": "urinary aldosterone excretion, increase from baseline", "setting": "[5]; eplerenone dose of 50 mg", "value": "Greater increases"},
      {"measurement": "urinary aldosterone excretion, increase from baseline", "setting": "[5]; eplerenone dose of 100 mg", "value": "Greater increases"},
      {"measurement": "testosterone levels", "setting": "[5]", "value": "lack of effect"},
      {"measurement": "reduction in BNP", "setting": "[5]; patients with high baseline BNP levels", "value": "even greater"}
    ]},
    {"smiles": "CCOC(=O)[C@H](CCc1ccccc1)N[C@@H](C)C(=O)N1[C@H](C(=O)O)C[C@@H]2CCC[C@@H]21", "note": "[ramipril]", "values": [
      {"measurement": "first-year mortality rate in the active (ACE-I) arm", "setting": "[6]; AIRE", "value": 16, "unit": "%"},
      {"measurement": "risk reduction in all cause mortality compared to placebo", "setting": "[6]; AIRE", "value": 27, "unit": "%"},
      {"measurement": "reduction in the risk of developing severe resistant HF compared to placebo", "setting": "[6]; AIRE, p=0.017", "value": 23, "unit": "%"},
      {"measurement": "risk reduction in all cause mortality compared to placebo", "setting": "[6]; AIREX long-term (three year) follow-up", "value": 36, "unit": "%"},
      {"measurement": "ventricular dilatation and decline of systolic dysfunction", "setting": "[7]", "value": "prevented ventricular dilatation and further decline of systolic dysfunction"}
    ]},
    {"smiles": "C[C@H](CS)C(=O)N1CCC[C@H]1C(=O)O", "note": "[captopril]", "values": [
      {"measurement": "plasma aldosterone", "setting": "hypertensive patients", "value": "gradual return of plasma aldosterone to baseline levels"}
    ]},
    {"smiles": "CC(=O)S[C@@H]1CC2=CC(=O)CC[C@]2(C)[C@H]2CC[C@@]3(C)[C@@H](CC[C@@]34CCC(=O)O4)[C@H]12", "note": "[spironolactone]", "values": [
      {"measurement": "reduction in mortality compared to placebo", "setting": "[8]; as restated in the sample size discussion", "value": "> 30", "unit": "%"},
      {"measurement": "risk reduction for all cause mortality", "setting": "[8]; spironolactone 25 mg daily added to standard therapy (ACE-I and loop diuretic, with or without digoxin) vs standard therapy plus placebo, p<0.001", "value": 30, "unit": "%"},
      {"measurement": "lower frequency of hospitalization for worsening HF than placebo patients", "setting": "[8]; spironolactone 25 mg daily added to standard therapy", "value": 35, "unit": "%"},
      {"measurement": "median increase in serum potassium concentration compared to placebo", "setting": "[8]; spironolactone added to standard therapy", "value": "statistically but not clinically significant"},
      {"measurement": "patients in whom highly effective", "setting": "[9]", "value": "13 of 16"},
      {"measurement": "myocardial fibrosis", "setting": "animal models", "value": "prevents myocardial fibrosis"},
      {"measurement": "myocardial fibrosis", "setting": "animal models; listed as Spironolactone", "value": "prevent fibrosis in animal models irrespective of the development of left ventricular hypertrophy and the presence of hypertension"},
      {"measurement": "fibrosis", "setting": "hypertensive-rat cohort", "value": "prevent fibrosis"},
      {"measurement": "plasma renin activity (PRA)", "setting": "[5]", "value": "significantly elevated"},
      {"measurement": "testosterone levels", "setting": "[5]", "value": "significant increase"},
      {"measurement": "ventricular dilatation and decline of systolic dysfunction", "setting": "[7]", "value": "prevented ventricular dilatation and further decline of systolic dysfunction"}
    ]},
    {"smiles": "CCOC(=O)[C@H](CCc1ccccc1)N[C@@H](C)C(=O)N1[C@H](C(=O)O)C[C@H]2CCCC[C@@H]21", "note": "[trandolapril]", "values": [
      {"measurement": "first-year mortality rate in the active (ACE-I) arm", "setting": "[10]; TRACE", "value": 23, "unit": "%"},
      {"measurement": "relative reduction in the risk of death compared to placebo", "setting": "[10]; p=0.001", "value": 18, "unit": "%"},
      {"measurement": "reduction in the risk of progression to severe HF compared to placebo", "setting": "[10]; p=0.003", "value": 29, "unit": "%"}
    ]},
    {"smiles": "NCCCC[C@H](N[C@@H](CCc1ccccc1)C(=O)O)C(=O)N1CCC[C@H]1C(=O)O", "note": "[lisinopril]", "values": [
      {"measurement": "first-year mortality", "setting": "[11]", "value": 22, "unit": "%"}
    ]}
  ]
}
